Assay results reported in ChEMBL document CHEMBL3885881, “DrugMatrix”.

Species on record: Rattus norvegicus
Assay: DrugMatrix - Regimen: Daily Repeat
Type: toxicity, organism-based, Sprague-Dawley
Design: regimen Daily Repeat, gender Male, age 6-8 weeks
Conditions: in vivo, po, route oral GAVAGE, […]; for ABSOLUTE BASOPHIL / ABSOLUTE EOSINOPHIL / ABSOLUTE LYMPHOCYTE / ABSOLUTE MONOCYTE / ABSOLUTE SEGMENTED NEUTROPHIL / BASOPHIL / EOSINOPHIL / ERYTHROCYTE COUNT / HEMATOCRIT / HEMOGLOBIN / LEUKOCYTE COUNT / LYMPHOCYTE / MEAN CORPUSCULAR HEMOGLOBIN / MEAN CORPUSCULAR HEMOGLOBIN CONCENTRATION / MEAN CORPUSCULAR VOLUME / MONOCYTE / NEUTROPHIL / NUCLEATED RED BLOOD CELLS / PLATELET COUNT: tissue Blood; for ALANINE AMINOTRANSFERASE / ALKALINE PHOSPHATASE / ASPARTATE AMINOTRANSFERASE / BLOOD UREA NITROGEN / CARBON DIOXIDE / CHLORIDE / CHOLESTEROL / CREATINE PHOSPHOKINASE / CREATININE / GLUCOSE / LACTATE DEHYDROGENASE / LIPASE / PHOSPHORUS / POTASSIUM / SODIUM / TOTAL BILIRUBIN / TOTAL PROTEIN / URIC ACID: tissue Plasma
[1] = 0 mg/kg, 72 h, dose level Control, time 3 day
[2] = 0 mg/kg, dose level Control, time 7 day
[3] = 100 mg/kg, 72 h, dose level Low, time 3 day

## Cc1ccc(C)c(OCCCC(C)(C)C(=O)O)c1 [GEMFIBROZIL]
[1]
  ABSOLUTE BASOPHIL: 0 CELLS/uL
  ABSOLUTE EOSINOPHIL: 37.33 CELLS/uL
  ABSOLUTE LYMPHOCYTE: 6295.33 CELLS/uL
  ABSOLUTE MONOCYTE: 122.17 CELLS/uL
  ABSOLUTE SEGMENTED NEUTROPHIL: 861.83 CELLS/uL
  BASOPHIL: 0%
  EOSINOPHIL: 0.5%
  ERYTHROCYTE COUNT: 5.2 x10E6/uL
  HEMATOCRIT: 32.58%
  HEMOGLOBIN: 12.95 G/DL
  LEUKOCYTE COUNT: 7.32 x10E3/uL
  LYMPHOCYTE: 86%
  MEAN CORPUSCULAR HEMOGLOBIN: 24.93 pg
  MEAN CORPUSCULAR HEMOGLOBIN CONCENTRATION: 39.77 G/DL
  MEAN CORPUSCULAR VOLUME: 62.65 fL
  MONOCYTE: 1.67%
  NEUTROPHIL: 11.83%
  NUCLEATED RED BLOOD CELLS: 0 /100WBC
  PLATELET COUNT: 1029 x10E3/uL
  ALANINE AMINOTRANSFERASE: 63.67 u/L
  ALKALINE PHOSPHATASE: 329.83 u/L
  ASPARTATE AMINOTRANSFERASE: 77.67 u/L
  BLOOD UREA NITROGEN: 18 mg/dL
  CARBON DIOXIDE: 29.67 mmol/L
  CHLORIDE: 102.67 MEQ/L
  CHOLESTEROL: 64.5 mg/dL
  CREATINE PHOSPHOKINASE: 178.67 u/L
  CREATININE: 0.18 mg/dL
  GLUCOSE: 163.83 mg/dL
  LACTATE DEHYDROGENASE: 75.83 u/L
  LIPASE: 10 u/L
  PHOSPHORUS: 8.28 mg/dL
  POTASSIUM: 4.79 MEQ/L
  SODIUM: 142.22 MEQ/L
  TOTAL BILIRUBIN: 0.22 mg/dL
  TOTAL PROTEIN: 5.78 G/DL
  URIC ACID: 0.87 mg/dL
[2]
  ABSOLUTE BASOPHIL: 0 CELLS/uL
  ABSOLUTE EOSINOPHIL: 19 CELLS/uL
  ABSOLUTE LYMPHOCYTE: 7803.5 CELLS/uL
  ABSOLUTE MONOCYTE: 117.83 CELLS/uL
  ABSOLUTE SEGMENTED NEUTROPHIL: 1093 CELLS/uL
  BASOPHIL: 0%
  EOSINOPHIL: 0.17%
  ERYTHROCYTE COUNT: 5.84 x10E6/uL
  HEMATOCRIT: 35.75%
  HEMOGLOBIN: 13.87 G/DL
  LEUKOCYTE COUNT: 9.03 x10E3/uL
  LYMPHOCYTE: 87.17%
  MEAN CORPUSCULAR HEMOGLOBIN: 23.78 pg
  MEAN CORPUSCULAR HEMOGLOBIN CONCENTRATION: 38.8 G/DL
  MEAN CORPUSCULAR VOLUME: 61.25 fL
  MONOCYTE: 1.17%
  NEUTROPHIL: 11.5%
  NUCLEATED RED BLOOD CELLS: 0 /100WBC
  PLATELET COUNT: 1098.67 x10E3/uL
  ALANINE AMINOTRANSFERASE: 66 u/L
  ALKALINE PHOSPHATASE: 291.83 u/L
  ASPARTATE AMINOTRANSFERASE: 80.5 u/L
  BLOOD UREA NITROGEN: 15.67 mg/dL
  CARBON DIOXIDE: 30 mmol/L
  CHLORIDE: 101.67 MEQ/L
  CHOLESTEROL: 69.67 mg/dL
  CREATINE PHOSPHOKINASE: 363.33 u/L
  CREATININE: 0.25 mg/dL
  GLUCOSE: 146.5 mg/dL
  LACTATE DEHYDROGENASE: 219.67 u/L
  LIPASE: 11.33 u/L
  PHOSPHORUS: 10.08 mg/dL
  POTASSIUM: 5.22 MEQ/L
  SODIUM: 144.67 MEQ/L
  TOTAL BILIRUBIN: 0.12 mg/dL
  TOTAL PROTEIN: 6.33 G/DL
  URIC ACID: 0.75 mg/dL
[3]
  ABSOLUTE BASOPHIL: 0 CELLS/uL
  ABSOLUTE EOSINOPHIL: 135 CELLS/uL
  ABSOLUTE LYMPHOCYTE: 14816.33 CELLS/uL
  ABSOLUTE MONOCYTE: 381.17 CELLS/uL
  ABSOLUTE SEGMENTED NEUTROPHIL: 1317.5 CELLS/uL
  BASOPHIL: 0%
  EOSINOPHIL: 0.67%
  ERYTHROCYTE COUNT: 5.65 x10E6/uL
  HEMATOCRIT: 35.43%
  HEMOGLOBIN: 14.12 G/DL
  LEUKOCYTE COUNT: 16.65 x10E3/uL
  LYMPHOCYTE: 89%
  MEAN CORPUSCULAR HEMOGLOBIN: 25.02 pg
  MEAN CORPUSCULAR HEMOGLOBIN CONCENTRATION: 39.85 G/DL
  MEAN CORPUSCULAR VOLUME: 62.8 fL
  MONOCYTE: 2.33%
  NEUTROPHIL: 8%
  NUCLEATED RED BLOOD CELLS: 0 /100WBC
  PLATELET COUNT: 1185.67 x10E3/uL
  ALANINE AMINOTRANSFERASE: 52.83 u/L
  ALKALINE PHOSPHATASE: 423.5 u/L
  ASPARTATE AMINOTRANSFERASE: 76.17 u/L
  BLOOD UREA NITROGEN: 14.67 mg/dL
  CARBON DIOXIDE: 31 mmol/L
  CHLORIDE: 101.5 MEQ/L
  CHOLESTEROL: 48 mg/dL
  CREATINE PHOSPHOKINASE: 304.5 u/L
  CREATININE: 0.2 mg/dL
  GLUCOSE: 145.83 mg/dL
  LACTATE DEHYDROGENASE: 103.67 u/L
  LIPASE: 11.17 u/L
  PHOSPHORUS: 11.08 mg/dL
  POTASSIUM: 6.55 MEQ/L
  SODIUM: 142.47 MEQ/L
  TOTAL BILIRUBIN: 0.2 mg/dL
  TOTAL PROTEIN: 5.9 G/DL
  URIC ACID: 1.3 mg/dL
